Laboratory results from patent publication US20050118310A1, “Formulations of compounds derived from natural sources and their use with irradiation for food preservation” (priority 2001, published 2005).
Where “and” joins values, the source holds several entries; their conditions need not be identical. Equal values may be shown once. Marks after values point to notes of the source that are not given here.

Columns and labels:
[1] = system: Six pathogenic and spoilage bacteria, commonly found in meat and meat products; experiment: MIC in artificial culture media (1 log reduction); format: cell-based
Method: The concentration ot each active compound added to the meat samples was based on results obtained in a previous experiment. These concentrations represent the minimum inhibitory concentrations (MIC) of the active compounds required to be present in artificial culture media in order to reduce by 1 log the number of bacteria in culture. Six pathogenic and spoilage bacteria, commonly found in meat and meat products, were tested. […] The concentration used for carnosine (1.0%) was selected from the literature (Sebranek, 1999). The concentrations of BHA (0.01%), BHT (0.01%), EDTA (100 ppm), and tetrasodium pyrophosphate (0.1%) corresponded to the concentrations recommended by the Canadian Food Inspection Agency (CFIA).
This value was detennined by testing six pathogenic and spoilage bacteria, commonly found in meat and meat products.

E. coli [2] = experiment: MIC (D10 %) of active compounds in ground beef, E. coli; format: cell-based, Escherichia coli (ATCC 25922); conditions: non-irradiated ground beef, 10^5 CFU/g, stored at 4° C. for 24 hours; % w/w or v/w
Method: (§1) Escherichia coli (ATCC 25922) and Salmonella typhi (ATCC 19430) were obtained from the American Type Culture Collection (Rockville, Md., USA) and maintained at −80° C. in Tryptic Soy Broth (TSB; Difco Laboratory, Detroit, Mich.) containing glycerol (10%; v/v). Before each experiment, stock cultures were subcultured through two consecutive 24 h growth cycles in TSB at 35° C. to obtain working cultures containing approximately 10^9 UCF/ml for E. coli and S. typhi.
(§2) Samples were homogenised for 2 min in sterile peptone water (0.1%) using a Lab-blender 400 stomacher (Laboratory Equipment, London, UK). From this mixture, serial dilutions were prepared and appropriate ones were pour-plated in tryptic soy agar (TSA) (Difco, Laboratories, Detroit, Mich., USA) and incubated at 35° C., 24 hours for the numeration of E. coli and S. typhi.
(§3) D10 deteriiination: The kinetics of bacteria destruction by irradiation with or without the active compounds and under different packaging conditions was evaluated by linear regression. Bacterial counts (log CFU/ml) were plotted against irradiation doses or compound concentrations and the D10 values were calculated using SigmaPlot program. Statistical analysis was done using SPSS program. The Duncan test was used with a probability of 0.05.
(§4) The MIC values for the active compounds were determined on the basis of their antibacterial effectiveness in meat. Concentrations retained were those to reduce by 1 log CFU the population of E. coli or S. typhi in ground beef. Ground beef samples weighing 200 g were contaminated with working cultures of E. coli or S. typhi to obtain a final concentration of 10^5 CFU/g. The ground beef samples containing micro-organisms was mixed during 3 minutes at medium speed in a 4L-conmmercial blender (Waring Products, New Hartford, Col., USA) and different concentrations of the active compounds were incorporated, followed by another 3 minutes period mixing. Sterile petri plates (60×15 mm) were filled with ground beef samples containing micro-organisms and different concentrations of active compounds in portion of 25 g each and stored at 4° C. for 24 hours.
(§5) In addition to the above compounds, minimal concentrations of different types of commercial Herbalox® and Duralox® required to reduce by 1 log the bacterial population of E. coli in ground beef were evaluated. […] However, an estimation of the minimal concentration was calculated using the slope of the curve.

S. typhi [3] = experiment: MIC (D10 %) of active compounds in ground beef, S. typhi; format: cell-based, Salmonella typhi (ATCC 19430); conditions: non-irradiated ground beef, 10^5 CFU/g, stored at 4° C. for 24 hours; % w/w or v/w
Method: as §1, §2, §3, §4, §5

E. coli [4] = experiment: Irradiation sensitivity of E. coli in chicken breast; format: cell-based, Escherichia coli (ATCC 25922); conditions: trans-cinnamaldehyde 0.050%, thymol 0.038%, tetrasodium pyrophosphate 0.003%, carvacrol 0.029%; for D10(kGy) / Increase in Sensitivity: chicken breast; for D10(kGy): 4° C.; for Increase in Sensitivity: vs control
S. typhi [5] = experiment: Irradiation sensitivity of S. typhi in chicken breast; format: cell-based, Salmonella typhi (ATCC 19430); conditions: for D10(kGy) / Increase in Sensitivity: chicken breast; for D10(kGy): 4° C.; for D10(kGy) / irradiation dose necessary to completely eliminate S. typhi from the chicken breast / Increase in Sensitivity: trans-cinnamaldehyde 0.030%, tetrasodium pyrophosphate 0.003%, carvacrol 0.038%, thymol […]; for factor by which the effect was reduced in the chicken breast: concentration of 1/30 of the MIC value in ground beef, compared with ground beef at MIC; for Increase in Sensitivity: vs control
E. coli [6] = experiment: Shelf life study, E. coli in ground beef irradiated at 0.30 kGy; format: cell-based, Escherichia coli; conditions: stored at 4° C., trans-cinnamaldehyde […], thymol 1.15%, carvacrol […]
Method: Irradiation treatments of ground beef samples for D10 and shelf life determination were performed using UC-15B irradiator (MDS-Nordion International Inc., Kanata, ON, Canada) equipped with a ^60 Co source at a dose rate of 14.42 kGy/h). Irradiation doses used for D10 determination were ranged from 0.25 to 0.55 kGy for E. coli, from 0.50 to 2.0 kGy for S. typhi, and from 0.5 to 2.5 kGy for the mixture of indigenous microorganisms of ground beef. The shelf life study was performed on samples irradiated at 0.30, 0.85, and 1.75 kGy for E. coli, S. typhi, and the mixture of indigenous microorganisms of ground beef, respectively. For each active compound concentration tested, a group of non-irradiated samples sened as a control. For D10 determination, samples were analysed immediately after irradiation. For shelf life studies, samples were stored at 4° C. and analysed periodically.
Microbial analysis was performed by homogenising the samples for 2 mn in sterile peptone water (0.1%) using a Lab-blender 400 stomacher (Laboratory Equipment, London, UK). From this mixture, serial dilutions were prepared and appropriate ones were pour-plated in tryptic soy agar (TSA) (Difco, Laboratories, Detroit, Mich., USA) and incubated at 35° C., 24 hours for the numeration of E. coli and S. typhi. For the ground beef broth, the incubation was performed on Plate Count Agar (PCA; Difco) at 35° C. for 48 h for the numeration mesophilic bacteria, and at 7° C. for 10 days for the numeration of psychrotrophic bacteria. Enterobacteriaceae were numerated on Violet Red Bile Glucose Agar (VRBGA; Difco) 35° C. for 48 hours.
A shelf life study was undertaken to evaluate the radiation sensitivity during refrigerated storage conditions. Ground beef samples contaminated with E. coli, S. typhi, or a mixture of indigenous micro-organisms were irradiated in presence or absence of selected active compounds. […]

E. coli [7] = experiment: Irradiation sensitivity (D10) of E. coli in ground beef; format: cell-based, Escherichia coli (ATCC 25922)
[8] = under air, trans-cinnamaldehyde […]
[9] = ground beef, air, 4° C., carvacrol 1.0% alone or with ascorbic acid 0.5% and/or tetrasodium pyrophosphate 0.1%

Row | Structure (SMILES) | Mean values of MIC (concentration required in artificial culture media to reduce by 1 log the number of bacteria) [1] | D10 (%): minimal concentration of active compound required to reduce E. coli population by 1 log in ground beef (E. coli [2]) | D10 (%): minimal concentration of active compound required to reduce S. typhi population by 1 log in ground beef (S. typhi [3]) | D10(kGy) (E. coli [4]) | irradiation dose necessary to completely eliminate E. coli from the chicken breast (E. coli [4]) | Increase in Sensitivity (E. coli [4]) | D10(kGy) (S. typhi [5]) | factor by which the effect was reduced in the chicken breast (S. typhi [5]) | irradiation dose necessary to completely eliminate S. typhi from the chicken breast (S. typhi [5]) | Increase in Sensitivity (S. typhi [5]) | days of storage after which complete inhibition was observed (E. coli [6]) | other results
1 | Cc1ccc(C(C)C)c(O)c1 [Thymol, thymol] | 0.1% | 1.14 ± 0.05^a % | 1.60 ± 0.00^ab % | 0.131 ± 0.007^b kGy | around 0.75 kGy | 9.7% | 0.570 ± 0.065^b kGy | 5 | 2.8 kGy | 11.4% | 15 days | 
2 | O=C/C=C/c1ccccc1 [Trans-cinnamaldehyde, trans-cinnamaldehyde] | 0.25% and 0.025% | 1.57 ± 0.10^b % | 0.89 ± 0.03^a % | 0.098 ± 0.006^a kGy | 0.75 kGy | 32.4% | 0.341 ± 0.018^a kGy | 1.5 | 1.4 kGy | 47.0% | 15 days | D10(kGy) (E. coli [7]; ground beef packed under MAP (60% O2-30% CO2-10% N2), 4° C., trans-cinnamaldehyde […]): 0.046 ± 0.001^b* kGy; D10(kGy) (E. coli [7]; ground beef packed under air, 4° C., trans-cinnamaldehyde […]): 0.115 ± 0.004^a* kGy; Increase in Sensitivity (E. coli [7]; ground beef under MAP, trans-cinnamaldehyde […] vs control under the same atmosphere): 46.5%; Increase in Sensitivity (E. coli [7]; ground beef under air, trans-cinnamaldehyde […] vs control under the same atmosphere): 8.7%; increase in irradiation sensitivity by modification of the packaging atmosphere (E. coli [7]; ground beef, MAP vs air, both with trans-cinnamaldehyde […]): 60%; irradiation dose needed to completely eliminate E. coli from the ground beef (E. coli [7]; under MAP, trans-cinnamaldehyde […]): 0.25 kGy; irradiation dose needed to completely eliminate E. coli from the ground beef (E. coli [7]; [8]): 0.6 kGy; irradiation dose to completely eliminate E. coli from ground beef (E. coli [7]; [8]): 0.2 kGy
3 | Cc1ccc(C(C)C)cc1O [Carvacrol, carvacrol] | 0.125% | 0.88 ± 0.12^a % | 1.15 ± 0.02^a % | 0.145 ± 0.003^c kGy | 0.72 kGy | 0% | 0.532 ± 0.071^b kGy | 4 | 2.3 kGy | 17.3% | 50 days | D10(kGy) (E. coli [7]; [9]): 0.057 ± 0.0015^a kGy; irradiation dose necessary to completely eliminate E. coli (E. coli [7]; [9]): 0.3 kGy; factor by which the irradiation dose necessary to completely eliminate E. coli is lower than in the absence of active compounds (E. coli [7]; ground beef, air, 4° C., carvacrol 1.0% alone or with tetrasodium pyrophosphate 0.1%): 2.3; Increase in Sensitivity (E. coli [7]; vs control, negative = protective effect, ground beef, air, 4° C., carvacrol 1.0% alone or with ascorbic acid 0.5% and/or tetrasodium pyrophosphate 0.1%): 55.5%
